Article PMC10937676, “Targeting the NTSR2/TrkB oncogenic pathway in chronic lymphocytic leukemia” (Scientific Reports, 2024)

Key:
MEC-1 cell line = assay: Cytotoxicity on the MEC-1 cell line (Incucyte, Cytotox Dye); assay type: cell-based; conditions: 0 to 100 µM peptide, fluorescence monitored for 24 h, read-out: IC50, cell death
Procedure: The cytotoxicity of the peptides was initially assessed on the MEC-1 cell line to determine their IC50.
Figure 3 Cytotoxicity of the peptide in vitro and ex vivo. (A) Determination of the cytotoxicity of Pep and TAT-Pep peptides on the MEC-1 cell line. Increased concentrations (0 to 100 µM) of Pep and TAT-Pep were incubated with the MEC-1 cell line, and the number of dead cells was measured using the Incucyte live-cell imaging device with Cytotox Dye (green). Fluorescence was monitored for 24 h. (B) Measurement of the cytotoxicity of the TAT-Pep peptide on CLL-B cells from patients. Increased concentrations (0 to 30 µM) of TAT-Pep were incubated with CLL-B cells, and the number of dead cells was measured using the Incucyte live-cell imaging device with Cytotox Dye (green). Fluorescence was monitored for 48 h. […] In all analyses, the ‘Green Object Count/Phase Object Count’ ratio was determined using the Incucyte analysis software to obtain the percentage of dead cells. The area under the curve for each condition was then calculated, and they were compared using a t-test. […]
Cell viability and survival were monitored using the IncucyteS3 system (Sartorius), a live-cell imaging device enabling the tracking of fluorescence over set periods of time[41],[42]. […] The area under the curve for each condition was then calculated, and they were compared using a t-test. […]

BCL-XL mRNA = assay: RTqPCR, mRNA level of BCL-XL in CLL-B cells; assay type: cell-based, human; conditions: CLL-B cells from 12 patients, overnight, 10 µM, 18S housekeeping gene
From the text: Concerning anti-apoptotic protein expression, a decrease in anti-apoptotic proteins BCL-2; BCL-XL and MCL-1 was observed after TAT-Pep treatment of CLL-B cells, possibly as a consequence of the SRC kinase inactivation (Fig. 6A–C). To unveil whether the regulation mechanism behind the observed modifications was transcriptional or post-transcriptional, we evaluated the mRNA levels of all three anti-apoptotic proteins following peptide treatment. […] To further underline that the induction of cell death following TAT-Pep treatment involved apoptosis regulation pathways, we used B cells from six CLL patients and stained them with Annexin V in both TAT-Pep treated and untreated conditions. […]
Figure 6 The peptide lowers anti-apoptotic proteins levels. […] CLL-B cells from 12 patients were incubated overnight, with or without 10 µM of TAT-Pep, subsequently RNA was extracted from cell lysates and mRNA levels of BCL-2 (D); BCL-XL (E) and MCL-1 (F) were evaluated using RTqPCR; 18S was used as a housekeeping gene. (G) Increased concentrations (0 to 30 µM) of TAT-Pep were incubated with 20,000 CLL-B, and the number of Annexin V-positive cells was measured using the Incucyte live-cell imaging device. Fluorescence was monitored for 48 h. […] The ‘Green Object Count/Phase Object Count’ ratio was determined using the Incucyte analysis software to obtain the percentage of apoptotic cells. […]

AKT = assay: Immunoblot, relative phosphorylation level of AKT in CLL-B cells; assay type: cell-based, human; conditions: CLL-B cells from 10 patients, overnight, 10 µM
Procedure: Figure 5 The peptide inhibits kinase phosphorylation. CLL-B cells from 10 patients were incubated overnight, with or without 10 µM of TAT-Pep. Whole cell lysates were then prepared, and 10 µg of proteins were immunoblotted to assess the following parameters. (A) Relative phosphorylation level of SRC. (B) Relative phosphorylation level of AKT. (C) Relative phosphorylation level of LYN. (D) Relative phosphorylation level of BTK. (E) Relative phosphorylation level of all tyrosine-phosphorylated proteins.
Whole cell lysate proteins were extracted using RIPA buffer (Sigma-Aldrich) and sonication (VibraCell™). Plasma membrane proteins were recovered by using the Plasma Membrane Protein Extraction Kit (Abcam) according to the manufacturer’s instructions. A list of the antibodies used for immunoblotting is available in Supplementary Table 2. Bands were quantitatively assessed by densitometry using Fiji software. To evaluate the level of interaction of NTSR2 and TRKB we normalized the density of the TRKB bands by the density of the NTSR2 bands to obtain the relative amount of TRKB co-precipitated through NTSR2.

GRKKRRQRRRPPQNAVSSSFRKLFLEAVSSLCGEHHPMKRLPPKPQSPTLMDTASGFGDPPETRT [TAT-Pep]
IC50 (MEC-1 cell line): 10 µM
mRNA level of BCL-XL (in words) (BCL-XL mRNA): significantly lowered expression
AKT phosphorylation (in words) (AKT): did not observe any variation
